Where two headings read alike, the source gives them in different places.
What was measured:
LNCaP = experiment: Cell proliferation assay (CellTiterGlo, 72 h), LNCaP; format: cell-based; settings: LNCap cells, 72 h compound treatment, read-out: LNCap ATP average IC50
Method: The cell line used was 22RV1 or LNCaP, and the medium was RPMI-1640 containing 10% FBS and antibiotics. All incubations were performed at 37° C. in a humidified carbon dioxide incubator.
On day 1, cells were digested with 0.25% trypsin (containing EDTA) and collected by centrifugation.
(§1) The cells were seeded in a 96-well plate (white wall/transparent bottom) at 5000 cells/well and cultured overnight.
(§2) On day 2, A stock solution of the compound at a concentration of 10 mM was subjected to an 8-fold serial dilution to obtain 8 concentration points. 2 μL of the compound solution at each concentration point was added to 98 μL of fresh medium, and the mixture was mixed homogeneously. Then, 5 μL of the compound solution diluted in the medium at each concentration point was added to 100 μL of overnight medium containing the cells, and 2 replicates were set for each concentration. The mixture was cultured for 72 h.
(§3) After 72 h of compound treatment, the plate was equilibrated to room temperature, 100 μL of CellTiterGlo (Promega) was added. The mixture was mixed homogeneously for 2 min, left to stand at room temperature for 10 min, and then read for luminescence values on a SpectraMax M5 microplate reader to evaluate cell viability. The positive control was 1% Tween-20 and the negative control was 0.1% DMSO. IC50 was generated by 4-parameter non-linear regression fitting in GraphPad Prism.

22RV1 = experiment: Cell proliferation assay (CellTiterGlo, 72 h), 22RV1; format: cell-based; settings: read-out: 22Rv1 ATP average IC50
Method: All incubations were performed at 37° C. in a humidified carbon dioxide incubator.
as §1, §2, §3

[1] = Homo sapiens, 22Rv1 cells, 72 h compound treatment, CellTiterGlo

Structure (SMILES) | IC50 (LNCaP; Homo sapiens) | IC50 (22RV1; Homo sapiens, 22Rv1, 72 h) | IC50 (22RV1; [1]) | further results
Cc1sc2c(c1C)C(c1ccc(C#CCN)cc1)=N[C@@H](CC(N)=O)c1nnc(C)n1-2 [Compound 9001] | 200 to 500 nM | > 500 nM |  | 
Cc1sc2c(c1C)C(c1ccc(C#CC(N)=O)cc1)=N[C@@H](CC(=O)OC(C)(C)C)c1nnc(C)n1-2 [Compound 9002] | < 50 nM |  | < 50 nM | 
Cc1sc2c(c1C)C(c1ccc(-c3cc(=O)[nH]o3)cc1)=N[C@@H](CC(=O)OC(C)(C)C)c1nnc(C)n1-2 [Compound 9003] | 50 to 200 nM |  | > 500 nM | 
Cc1sc2c(c1C)C(c1ccc(C#CCN)cc1)=N[C@@H](CC(=O)NO)c1nnc(C)n1-2 [Compound 9010] | > 500 nM | > 500 nM |  | 
Cc1sc2c(c1C)C(c1ccc(C#CCN)cc1)=N[C@@H](CC(=O)Nc1ccc(O)cc1)c1nnc(C)n1-2 [Compound 9012] | 50 to 200 nM | 200 to 500 nM |  | 
CCNC(=O)C[C@@H]1N=C(c2ccc(C#CCN)cc2)c2c(sc(C)c2C)-n2c(C)nnc21 [Compound 9013] | < 50 nM | 200 to 500 nM |  | 
Cc1sc2c(c1C)C(c1ccc(C#CC(=O)NN)cc1)=N[C@@H](CC(=O)OC(C)(C)C)c1nnc(C)n1-2 [Compound 9017] | < 50 nM |  | 200 to 500 nM | 
Cc1sc2c(c1C)C(c1ccc(C#CCN)cc1)=N[C@@H](CC(=O)NN)c1nnc(C)n1-2 [Compound 9018] | > 500 nM | > 500 nM |  | 
COC(=O)C#Cc1ccc(C2=N[C@@H](CC(=O)OC(C)(C)C)c3nnc(C)n3-c3sc(C)c(C)c32)cc1 [Compound 9019] | 50 to 200 nM |  | 200 to 500 nM | 
Cc1sc2c(c1C)C(c1ccc(C#CC(=O)O)cc1)=N[C@@H](CC(=O)OC(C)(C)C)c1nnc(C)n1-2 [Compound 9020] | > 500 nM |  | > 500 nM | 
Cc1sc2c(c1C)C(c1ccc(C#CCN)cc1)=N[C@@H](CC(=O)O)c1nnc(C)n1-2 [Compound 9021] | 50 to 200 nM | > 500 nM |  | 
Cc1sc2c(c1C)C(c1ccc(C#CC(=O)N(C)N)cc1)=N[C@@H](CC(=O)OC(C)(C)C)c1nnc(C)n1-2 [Compound 9023] | > 500 nM |  | > 500 nM | 
Cc1sc2c(c1C)C(c1ccc(C#CCN)cc1)=N[C@@H](CC(=O)N(C)O)c1nnc(C)n1-2 [Compound 9025] | 50 to 200 nM | 200 to 500 nM |  | 
Cc1sc2c(c1C)C(c1ccc(C#CCN)cc1)=N[C@@H](CC(=O)N(C)N)c1nnc(C)n1-2 [Compound 9026] | > 500 nM | > 500 nM |  | 
C#CCNC(=O)C[C@@H]1N=C(c2ccc(C#CCN)cc2)c2c(sc(C)c2C)-n2c(C)nnc21 [Compound 9038] | 200 to 500 nM | 50 to 200 nM |  | 
Cc1sc2c(c1C)C(c1ccc(C#CCON)cc1)=N[C@@H](CC(=O)OC(C)(C)C)c1nnc(C)n1-2 [Compound 9041] | < 50 nM |  | 50 to 200 nM | 
CC(=O)NNCC#Cc1ccc(C2=N[C@@H](CC(=O)OC(C)(C)C)c3nnc(C)n3-c3sc(C)c(C)c32)cc1 [Compound 9046] | 50 to 200 nM |  | < 50 nM | 
CC(=O)NN(C)CC#Cc1ccc(C2=N[C@@H](CC(=O)OC(C)(C)C)c3nnc(C)n3-c3sc(C)c(C)c32)cc1 [Compound 9047] | > 500 nM |  | < 50 nM | 
CCNC(=O)C[C@@H]1N=C(c2ccc(C#CCN)cc2)c2cc(OC)ccc2-n2c(C)nnc21 [Compound 9051] | > 500 nM | > 500 nM |  | 
Cc1sc2c(c1C)C(c1ccc(-c3cc(=O)n(C)o3)cc1)=N[C@@H](CC(=O)OC(C)(C)C)c1nnc(C)n1-2 [Compound 9053] | 50 to 200 nM |  | 50 to 200 nM | 
CONC(=O)C#Cc1ccc(C2=N[C@@H](CC(=O)OC(C)(C)C)c3nnc(C)n3-c3sc(C)c(C)c32)cc1 [Compound 9055] | < 50 nM |  | < 50 nM | 
Cc1sc2c(c1C)C(c1ccc(-c3cc(CN)nn3C)cc1)=N[C@@H](CC(=O)OC(C)(C)C)c1nnc(C)n1-2 [Compound 9058] | 200 to 500 nM |  | > 500 nM | 

Structure (SMILES) | IC50 (LNCaP; Homo sapiens) | IC50 (22RV1; Homo sapiens, 22Rv1, 72 h) | IC50 (22RV1; [1]) | further results
Cc1sc2c(c1C)C(c1ccc(-c3nc(CN)cs3)cc1)=N[C@@H](CC(=O)OC(C)(C)C)c1nnc(C)n1-2 [Compound 9059] | < 50 nM |  | 50 to 200 nM | 
Cc1sc2c(c1C)C(c1ccc(-c3ccoc3CN)cc1)=N[C@@H](CC(=O)OC(C)(C)C)c1nnc(C)n1-2 [Compound 9060] | 50 to 200 nM |  | 200 to 500 nM | 
Cc1sc2c(c1C)C(c1ccc(N3CC(CN)C3)cc1)=N[C@@H](CC(=O)OC(C)(C)C)c1nnc(C)n1-2 [Compound 9061] | 200 to 500 nM |  | 50 to 200 nM | 
Cc1sc2c(c1C)C(c1ccc(-c3ccc(CN)n3C)cc1)=N[C@@H](CC(=O)OC(C)(C)C)c1nnc(C)n1-2 [Compound 9062] | 50 to 200 nM |  | 50 to 200 nM | 
COc1ccc2c(c1)C(c1ccc(C#CCN)cc1)=N[C@@H](CC(=O)N(C)CCO)c1nnc(C)n1-2 [Compound 9063] | > 500 nM | > 500 nM |  | 
CONCC#Cc1ccc(C2=N[C@@H](CC(=O)OC(C)(C)C)c3nnc(C)n3-c3sc(C)c(C)c32)cc1 [Compound 9064] | < 50 nM |  | < 50 nM | 
Cc1sc2c(c1C)C(c1ccc(N3CC4(CC(N)C4)C3)cc1)=N[C@@H](CC(=O)OC(C)(C)C)c1nnc(C)n1-2 [Compound 9066] | < 50 nM |  | 200 to 500 nM | 
Cc1sc2c(c1C)C(c1ccc(-c3ccc(CN)s3)cc1)=N[C@@H](CC(=O)OC(C)(C)C)c1nnc(C)n1-2 [Compound 9067] | 50 to 200 nM |  | 50 to 200 nM | 
Cc1sc2c(c1C)C(c1ccc(-c3ncc(CN)s3)cc1)=N[C@@H](CC(=O)OC(C)(C)C)c1nnc(C)n1-2 [Compound 9068] | 50 to 200 nM |  | 50 to 200 nM | 
CCOC(=O)C[C@@H]1N=C(c2ccc(C#CCN)cc2)c2cc(OC)ccc2-n2c(C)nnc21 [Compound 9069] | < 50 nM | < 50 nM |  | 
COc1ccc2c(c1)C(c1ccc(C#CCN)cc1)=N[C@@H](CC(=O)O)c1nnc(C)n1-2 [Compound 9070] | > 500 nM | > 500 nM |  | 
Cc1sc2c(c1C)C(c1ccc(-c3csc(CN)n3)cc1)=NC(CC(=O)OC(C)(C)C)c1nnc(C)n1-2 (stereo not drawn) [Compound 9072] | < 50 nM |  | 50 to 200 nM | 
Cc1sc2c(c1C)C(c1ccc(-c3cnc(CN)s3)cc1)=NC(CC(=O)OC(C)(C)C)c1nnc(C)n1-2 (stereo not drawn) [Compound 9073] | < 50 nM |  | 50 to 200 nM | 
Cc1sc2c(c1C)C(c1ccc(-c3nc(CN)cs3)cc1)=N[C@@H](CC(=O)OC(C)(C)C)c1nnc(C)n1-2 [Compound 9074] |  |  |  | IC50 (LNCaP): < 50 nM; IC50 (22RV1; 22Rv1 cells, 72 h compound treatment, CellTiterGlo): 50 to 200 nM
Cc1sc2c(c1C)C(c1ccc(C#CCN)cc1)=N[C@@H](CC(=O)N(C)CCO)c1nnc(C)n1-2 [Compound 9075] | < 50 nM | 200 to 500 nM |  | 
Cc1sc2c(c1C)C(c1ccc(C#CCN)cc1)=N[C@@H](CC(=O)NCCO)c1nnc(C)n1-2 [Compound 9076] | 200 to 500 nM | > 500 nM |  | 
Cc1sc2c(c1C)C(c1ccc(/C=C/CON)cc1)=N[C@@H](CC(=O)OC(C)(C)C)c1nnc(C)n1-2 [Compound 9083] |  |  | < 50 nM | 
Cc1sc2c(c1C)C(c1ccc(-c3ccc(CN)cc3)cc1)=NC(CC(=O)OC(C)(C)C)c1nnc(C)n1-2 (stereo not drawn) [Compound 9084] | 50 to 200 nM |  | 200 to 500 nM | 
Cc1sc2c(c1C)C(c1ccc(-c3cccc(CN)c3)cc1)=NC(CC(=O)OC(C)(C)C)c1nnc(C)n1-2 (stereo not drawn) [Compound 9085] | 50 to 200 nM |  | > 500 nM | 
COc1ccc2c(c1)C(c1ccc(/C=C/CON)cc1)=N[C@@H](CC(=O)OC(C)(C)C)c1nnc(C)n1-2 [Compound 9092] |  | > 500 nM |  | 
Cc1sc2c(c1C)C(c1ccc(N3CC(CO)C3)cc1)=N[C@@H](CC(=O)OC(C)(C)C)c1nnc(C)n1-2 [Compound 9105] |  |  | 200 to 500 nM | 
Cc1sc2c(c1C)C(c1ccc(C#CCN)cc1)=N[C@@H](CC13OCC(C)(CO1)CO3)c1nnc(C)n1-2 [Compound 9113] |  |  |  | IC50 (22RV1): 200 to 500 nM
